Laboratory results published in patent EP2805715A1, “Inhibitors of RNR2 subunit of ribonucleotide reductase to impair reverse transcription of hiv related lentiviruses in macrophages and use thereof for the treatment of hiv infected patients” (INSTITUT PASTEUR, priority 2013, dated 2014).
Structures can show the parent of a compound that is named as a salt. Where two headings read alike, the source gives them in different places.

How the values were obtained:
HIV-1/VSV-G = format: cell-based
MDM = MDM viability; format: cell-based, human

Structure (SMILES) | HIV-1 replication, fold changes of luciferase activity with respect to mock treated cells (HIV-1/VSV-G) | MDM viability (MDM) | MDM viability (MDM; at the concentrations used in the assays (data not shown))
CC(=O)N(O)CCCCCNC(=O)CCC(=O)N(O)CCCCCNC(=O)CCC(=O)N(O)CCCCCN [DFO, Deferoxamine mesylate] | Dose dependent inhibition | not affected | –
NC(=O)NO [HU, Hydroxyurea] | Dose dependent inhibition | – | not affected
